From article PMC5571211 (Scientific Reports, 2017)

What was measured:
[1] = target: T1, co-localization of 5-LOX with FLAP (Homo sapiens, UniProt P20292); assay: Immunofluorescence microscopy of 5-LOX subcellular redistribution / co-localization with FLAP; format: cell-based; settings: human neutrophils or monocytes; diflapolin 1 µM, MK886 0.3 µM, zileuton 3 µM
T1 construct: endogenous in cells; host or cells: freshly isolated human monocytes (immunofluorescence also in neutrophils)
T1 sequence (P20292 1-161): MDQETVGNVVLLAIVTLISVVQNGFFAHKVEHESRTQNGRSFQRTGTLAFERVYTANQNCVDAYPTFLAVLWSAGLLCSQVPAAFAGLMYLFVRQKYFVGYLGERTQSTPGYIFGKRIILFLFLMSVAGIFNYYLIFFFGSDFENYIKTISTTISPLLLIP
Experimental: The incubations were stopped by paraformaldehyde fixation (4%, 20 min, RT) and cells were permeabilized using 100% ice-cold acetone (5 min, 4 °C). Blocking with non-immune goat serum (30 min, RT) was performed prior to overnight incubation (4 °C) with primary monoclonal-mouse-anti-5-LOX antibody (1:100 dilution, a generous gift from Dr. D. Steinhilber, Goethe University Frankfurt, Germany) and polyclonal-rabbit-anti-FLAP antibody (5 µg/mL, Abcam, Cambridge, UK). […] Cells were visualized by a Zeiss Axiovert 200 M microscope, and a Plan Neofluar × 100/1.30 Oil (DIC III) objective (Carl Zeiss, Jena, Germany) and image acquisition was performed using an AxioCam MR camera (Carl Zeiss).

[2] = target: T2, sEH in HepG2 cells (Homo sapiens, UniProt P34913); assay: 14,15-DiHETrE formation in HepG2 cells (cell-based sEH assay); settings: HepG2 cells; AUDA 5 µM, MK886 0.3 µM, SC57461A 0.3 µM
T2 construct: sEH is constitutively expressed in the human liver cancer cell line HepG2; endogenous in cells; host or cells: HepG2
T2 sequence (P34913 1-555): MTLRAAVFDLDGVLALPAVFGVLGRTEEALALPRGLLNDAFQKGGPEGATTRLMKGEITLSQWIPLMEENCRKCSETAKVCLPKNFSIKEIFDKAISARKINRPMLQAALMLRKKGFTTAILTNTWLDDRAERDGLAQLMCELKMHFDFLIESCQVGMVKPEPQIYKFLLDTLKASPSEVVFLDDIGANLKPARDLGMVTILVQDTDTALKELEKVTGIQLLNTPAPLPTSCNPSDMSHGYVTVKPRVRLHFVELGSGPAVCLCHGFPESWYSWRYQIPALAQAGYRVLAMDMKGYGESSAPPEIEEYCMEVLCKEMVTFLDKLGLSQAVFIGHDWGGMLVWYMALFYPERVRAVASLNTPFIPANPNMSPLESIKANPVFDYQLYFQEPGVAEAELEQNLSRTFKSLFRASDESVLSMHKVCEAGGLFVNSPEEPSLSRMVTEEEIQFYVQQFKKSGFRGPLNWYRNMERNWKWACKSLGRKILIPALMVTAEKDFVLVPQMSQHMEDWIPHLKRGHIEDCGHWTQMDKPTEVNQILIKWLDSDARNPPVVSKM
Experimental: To assay the activity of sEH in a cell-based model, HepG2 cells were harvested by trypsinization, pelleted (1,200 rpm, 5 min, 4 °C) and resuspended in PGC buffer to a final concentration of 1.5 × 10^6 cells/mL. […] Briefly, samples were acidified with four volumes of MilliQ water pH 3.5 containing PBS-HCl and subjected to Waters Sep-Pak® Vac 6cc columns (Waters, Milford, MA, USA), washed once with MilliQ and hexane, and eluted with methylformiate. The nitrogen-dried samples were dissolved in 50% methanol, and 14,15-DiHETrE formation was measured by UPLC-MS/MS using an Acquity™ UPLC system (Waters, Milford, MA, USA) and a QTRAP 5500 Mass Spectrometer (ABSciex, Darmstadt, Germany) equipped with a Turbo V™ Source and electrospray ionization (ESI). […] Ion spray voltage was set to 4000 V, the heater temperature to 500 °C, the declustering potential to 50–80 eV, the entrance potential to 10 eV, the collision cell exit potential to 10–13 eV, collision energies of 10 eV, the spray gas pressure to 40 psi, medium collision gas and the curtain gas pressure to 35 psi.

[3] = target: T3, human recombinant LTA4-H (Homo sapiens, UniProt P09960); assay: LTA4 hydrolase activity, co-incubation of isolated 5-LOX and LTA4-H; format: biochemical; settings: diflapolin up to 10 µM, AUDA 10 µM, SC57461A 0.3 µM, zileuton 3 µM
T3 construct: gift of Dr. E. Proschak, Goethe University, Frankfurt
T3 sequence (P09960 2-611 limits assumed): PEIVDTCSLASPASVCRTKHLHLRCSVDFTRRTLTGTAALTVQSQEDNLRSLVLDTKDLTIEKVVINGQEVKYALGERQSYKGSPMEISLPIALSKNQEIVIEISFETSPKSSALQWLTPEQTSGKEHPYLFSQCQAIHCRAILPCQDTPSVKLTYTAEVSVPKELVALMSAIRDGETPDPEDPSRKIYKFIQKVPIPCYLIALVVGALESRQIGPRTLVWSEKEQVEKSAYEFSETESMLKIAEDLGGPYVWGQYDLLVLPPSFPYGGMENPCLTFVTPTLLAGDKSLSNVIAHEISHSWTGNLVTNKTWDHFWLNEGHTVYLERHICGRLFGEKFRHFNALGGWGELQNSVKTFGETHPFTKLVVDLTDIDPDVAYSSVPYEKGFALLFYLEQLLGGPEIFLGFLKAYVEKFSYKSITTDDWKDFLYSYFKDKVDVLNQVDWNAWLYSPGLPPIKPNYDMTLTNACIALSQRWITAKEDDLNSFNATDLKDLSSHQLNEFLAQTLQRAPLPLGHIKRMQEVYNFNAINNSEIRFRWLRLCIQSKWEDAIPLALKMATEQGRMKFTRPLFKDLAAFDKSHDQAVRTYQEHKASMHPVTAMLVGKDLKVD
Experimental: In order to determine the activity of LTA4-H, aliquots of human recombinant 5-LOX (0.5 µg) and 10 µg of human recombinant LTA4-H (kindly provided by Dr. E. Proschak, Goethe University, Frankfurt, Germany) were suspended in 1 mL PBS containing 1 mM EDTA and pre-incubated with test compounds or vehicle (0.1% DMSO) for 10 min on ice. The specific LTA4-H inhibitor SC57461A (0.3 µM) was used as reference drug. Subsequently, incubations were stimulated with 20 µM AA and 2 mM CaCl2 for additional 10 min at 37 °C. The reaction was stopped by 1 volume ice-cold methanol, 530 µL acidified PBS and 200 ng of PGB1 as internal standard were added and subjected to solid phase extraction. All LTB4 isomers were analyzed by HPLC as described above.

Structure (SMILES)	co-localization of 5-LOX with FLAP [1]	effect on sEH in the cell-based sEH assay [2]	effect on LTA4-H activity (LTB4 formation) [3]
CC(C)c1ccc2c(c1)c(SC(C)(C)C)c(CC(C)(C)C(=O)O)n2Cc1ccc(Cl)cc1 [MK886, 3-[1-(4-chlorobenzyl)-3-t-butyl-thio-5-isopropylindol-2-yl]-2,2 - dimethylpropanoic acid]	neither diflapolin nor the FLAP inhibitor MK886 or the 5-LOX inhibitor zileuton prevented co-localization	no impact	–
Cc1cc(OCc2nc3ccccc3s2)ccc1NC(=O)Nc1ccc(Cl)c(Cl)c1 [diflapolin, N-[4-(benzothiazol-2-ylmethoxy)-2-methylphenyl]-N′-(3,4-dichlorophenyl)urea]	–	–	failed to inhibit
